These results are taken from ChEMBL document CHEMBL2073779, “pH-dependent bidirectional transport of weakly basic drugs across Caco-2 monolayers: implications for drug-drug interactions” (Pharm Res, 2003).

Structures are written as SMILES.

In this data set the target is ATP-dependent translocase ABCB1 (Homo sapiens, UniProt P08183). The experiment in a line: TP_TRANSPORTER: transepithelial transport in Caco-2 cells. Type of data set: functional, cell-based. A general note: Caco-2 cells form a polarised layer with tight junctions and transporters.
ATP-dependent translocase ABCB1, sequence (P08183 whole entry): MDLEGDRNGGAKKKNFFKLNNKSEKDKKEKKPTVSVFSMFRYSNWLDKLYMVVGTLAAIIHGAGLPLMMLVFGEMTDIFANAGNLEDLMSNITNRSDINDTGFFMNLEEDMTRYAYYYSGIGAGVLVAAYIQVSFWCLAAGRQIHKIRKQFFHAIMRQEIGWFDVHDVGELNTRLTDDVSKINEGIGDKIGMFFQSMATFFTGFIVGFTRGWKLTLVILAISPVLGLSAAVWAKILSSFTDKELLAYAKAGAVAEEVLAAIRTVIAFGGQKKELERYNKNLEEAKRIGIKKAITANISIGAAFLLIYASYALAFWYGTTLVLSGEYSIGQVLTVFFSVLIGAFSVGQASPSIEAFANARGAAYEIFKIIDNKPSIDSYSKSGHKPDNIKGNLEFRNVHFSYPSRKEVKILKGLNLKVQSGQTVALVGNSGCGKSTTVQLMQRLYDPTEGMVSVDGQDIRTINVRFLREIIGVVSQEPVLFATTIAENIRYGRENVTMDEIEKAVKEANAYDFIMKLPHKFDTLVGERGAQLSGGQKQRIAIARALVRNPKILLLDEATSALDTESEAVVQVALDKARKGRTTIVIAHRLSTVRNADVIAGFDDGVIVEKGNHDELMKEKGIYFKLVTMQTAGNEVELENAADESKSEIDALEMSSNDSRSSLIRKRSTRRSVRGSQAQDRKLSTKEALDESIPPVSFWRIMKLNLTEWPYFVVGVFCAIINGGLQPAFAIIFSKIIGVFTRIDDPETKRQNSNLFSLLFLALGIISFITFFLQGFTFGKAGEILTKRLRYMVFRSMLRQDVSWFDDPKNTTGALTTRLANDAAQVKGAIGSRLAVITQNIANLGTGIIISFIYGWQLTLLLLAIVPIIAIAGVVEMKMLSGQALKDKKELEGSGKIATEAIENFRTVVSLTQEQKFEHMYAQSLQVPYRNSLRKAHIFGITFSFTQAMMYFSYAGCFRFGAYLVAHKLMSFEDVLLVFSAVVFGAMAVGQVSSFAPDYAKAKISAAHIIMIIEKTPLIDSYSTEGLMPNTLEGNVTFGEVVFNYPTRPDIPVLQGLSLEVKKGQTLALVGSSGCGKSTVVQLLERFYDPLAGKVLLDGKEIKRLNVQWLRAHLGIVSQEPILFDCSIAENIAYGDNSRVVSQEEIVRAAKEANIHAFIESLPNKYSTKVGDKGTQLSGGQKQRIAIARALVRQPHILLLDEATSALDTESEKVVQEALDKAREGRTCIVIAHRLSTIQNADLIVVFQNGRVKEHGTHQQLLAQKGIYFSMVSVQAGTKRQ

Turning to `C[C@H]1O[C@@H](O[C@H]2[C@@H](O)C[C@H](O[C@H]3[C@@H](O)C[C@H](O[C@H]4CC[C@@]5(C)[C@H](CC[C@@H]6[C@@H]5C[C@@H](O)[C@]5(C)[C@@H](C7=CC(=O)OC7)CC[C@]65O)C4)O[C@@H]3C)O[C@@H]2C)C[C@H](O)[C@@H]1O` [DIGOXIN], the Activity result is “substrate [+]”.

Turning to `COCCc1ccc(OCC(O)CNC(C)C)cc1` (configuration not stated) [METOPROLOL], the Activity result was “is not a substrate [-]”.
